Like-named read-outs stand apart in the source and are kept apart here.
What was measured:
[1] = test system: L1210 murine leukemia cells (dCK^+); assay: radioactive tracer uptake assay, L1210 parental cells; type: cell-based; details: for dependence of retention and phosphorylation on dCK expression: L1210 wild type vs 10K cells, 1 hour incubation
From the text: (§1) To evaluate whether [^18F]D-FAC PET can determine resistance to gemcitabine and Ara-C, we used a previously described experimental model based on the L1210 murine leukemia cells and their gemcitabine/Ara-C resistant 10K derivatives^20. The molecular defect responsible for resistance in the L1210 10K cells is loss of dCK expression due to a genetic modification of chromosome 5 in the 3′ region of the dCK gene. The 10K cell line was derived by exposing the parental L1210 cells to increasing concentrations of gemcitabine^20; before experiments, we confirmed that L1210 10K cells lack expression of dCK at the protein level (FIG. 13). Thus, to determine whether D-FAC retention correlates with gemcitabine resistance in these cells, we performed radioactive tracer uptake assays using [^3H]D-FAC with [^3H]-FLT used as a negative control. We observed that the gemcitabine-resistant L1210-10K cell line retained much lower amounts of [^3H]D-FAC in contrast to the gemcitabine-sensitive L1210 parental cell line (FIG. 14A). In fact, [^3H]D-FAC uptake was 40-fold higher in dCK^+ cells compared to cells lacking dCK activity (dCK^+=1288 fmols/1×10^5 cells; dCK-=34 fmols/1×10^5 cells; p<0.001). In contrast, [^3H]FLT uptake was indistinguishable between these cell lines. FIG. 14B presents a [^3H]D-FAC kinase assay with the L1210 cell lines using [^3H]D-FAC as a substrate (1 microgram protein/reaction). In dCK positive cells shown in FIG. 14B, D-FAC phosphorylation was 52-fold higher than in dCK deficient cells (dCK^+=62 fmols; dCK^−=1.2 fmols; p=0.028). Reintroduction of dCK into the L1210-10K cells restored [^18F]D-FAC uptake and phosphorylation (FIG. 14), thus further confirming the critical role of this nucleoside kinase in regulating D-FAC metabolism.
(§2) Each cell type was incubated separately with each of the following: [^18F]L-FAC, and [^18F]-CA, and the positive control [^18F]D-FAC. The cells were incubated with [^18F]L-FAC, [^18F]-CA, and [^18F]D-FAC for 1 hour. Following successive washes, intracellular radioactivity was measured by scintillation counting to obtain the result shown in FIG. 17A.

[2] = test system: L1210-10K cell line (lacking dCK); assay: radioactive tracer uptake assay, L1210-10K cells; type: cell-based, murine
From the text: To evaluate whether [^18F]D-FAC PET can determine resistance to gemcitabine and Ara-C, we used a previously described experimental model based on the L1210 murine leukemia cells and their gemcitabine/Ara-C resistant 10K derivatives^20. The molecular defect responsible for resistance in the L1210 10K cells is loss of dCK expression due to a genetic modification of chromosome 5 in the 3′ region of the dCK gene. The 10K cell line was derived by exposing the parental L1210 cells to increasing concentrations of gemcitabine^20; before experiments, we confirmed that L1210 10K cells lack expression of dCK at the protein level (FIG. 13). Thus, to determine whether D-FAC retention correlates with gemcitabine resistance in these cells, we performed radioactive tracer uptake assays using [^3H]D-FAC with [^3H]-FLT used as a negative control. We observed that the gemcitabine-resistant L1210-10K cell line retained much lower amounts of [^3H]D-FAC in contrast to the gemcitabine-sensitive L1210 parental cell line (FIG. 14A). […]
Each cell type was incubated separately with each of the following: [^18F]L-FAC, and [^18F]-CA, and the positive control [^18F]D-FAC. […] Following successive washes, intracellular radioactivity was measured by scintillation counting to obtain the result shown in FIG. 17A.

[3] = test system: T lymphocytes from pmel-1 T cell receptor (TCR) transgenic mice; assay: retention of ^3H-labeled nucleoside analogs in naïve and proliferating primary T cells; type: cell-based, mouse
Protocol: In order to identify candidates for PET probes that can distinguish between activated T cells and non-activated, naïve T cells, we conducted a radioactive uptake assay, the results of which are shown in FIG. 1. […] These measurements were performed after incubating cells with radioactive compounds for 1 hr and performing successive washes to remove unincorporated probes. […] For example, we identified compounds #1 through #15 (see FIG. 2A for chemical structures) as PET probe candidates useful for detecting activated T cells. FIG. 2A presents substrates of dCK labeled with the ^18F positron emitting radioisotope.
T lymphocytes from pmel-1 T cell receptor (TCR) transgenic mice were stimulated ex vivo using a melanoma antigen (1 micromolar hgp 10025-33). These cells were then cultured for radioactive uptake and kinase assays that were performed 72 hours post-stimulation. […] The plate was then washed 5 times with media containing 5% fetal calf serum (FCS) by using the Millipore Vacuum Manifold (Billerica, Mass.); the amount of incorporated probe was measured by scintillation counting using the PerkinElmer Microbeta (Waltham, Mass.). […]
FIG. 1 identifies fluorinated deoxycytidine analogs retained in activated versus naive T lymphocytes and incorporated into DNA. […] Following successive washes, intracellular radioactivity was measured by scintillation counting. […]

[4] = test system: NIH3T3 fibroblasts engineered to overexpress nucleoside kinases (dCK) and the nucleoside transporter SLC29A1; assay: [^3H]D-FAC uptake in engineered NIH3T3 fibroblasts; type: cell-based
[5] = test system: deoxycytidine kinase (dCK); assay: kinase assay with L1210 cell line lysates; type: biochemical, murine; details: dCK^− cells; 1 microgram protein/reaction
From the text: as §1, §2
(§3) Lysates from L1210 wildtype (WT) and dCK deficient (10K) cells were incubated for 20 minutes with [^18F]L-FMAC; phosphorylated products were measured by scintillation counting.

[6] = target: T1, deoxycytidine kinase (dCK) (Mus musculus, UniProt P43346); assay: kinase assay with L1210 cell line lysates; type: biochemical, murine
T1 construct: endogenous in cells; host or cells: L1210 murine leukemia cells (wild type), whole-cell lysate; L1210-10K (dCK-deficient) as negative control
T1 sequence (P43346 whole entry): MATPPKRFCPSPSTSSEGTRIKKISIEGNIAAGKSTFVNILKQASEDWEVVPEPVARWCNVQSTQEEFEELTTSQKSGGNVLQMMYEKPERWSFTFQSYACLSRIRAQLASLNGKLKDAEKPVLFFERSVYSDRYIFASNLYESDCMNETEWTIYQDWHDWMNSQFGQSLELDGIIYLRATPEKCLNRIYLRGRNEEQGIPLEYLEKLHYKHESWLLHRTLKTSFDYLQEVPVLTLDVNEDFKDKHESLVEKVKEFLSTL
From the text: as §1, §2, §3

[7] = test system: MoMSV-induced sarcomas; assay: microPET/CT in oncoretrovirus (MoMSV) sarcoma model of anti-tumor immunity
Protocol: All the mice used in these studies were bred and maintained according to the guidelines of the Department of Laboratory Animal Medicine (DLAM) at the University of California, Los Angeles. For the oncoretrovirus-induced sarcoma model, C57/BL6 mice were challenged intramuscularly in the right triceps with the Moloney murine sarcoma and leukemia virus complex (MoMSV) in a volume of 100 uL of PBS as described previously^6. B6-MRL-Fas^1pr/J mice used for systemic autoimmunity studies were purchased from the Jackson Laboratory (stock number 000482). To monitor the immunosuppressive treatment, these mice were given intraperitoneal injections of dexamethasone (DEX, 10 mg/kg) at 24 hr intervals and were scanned by microPET/CT 24 hr after the last injection. Animals were anesthetized with 2% isoflurane, injected intravenously with 200 microCi [^18F]D-FAC and then scanned with microPET/CT; mice were sacrificed immediately after imaging. Organs were rapidly excised, weighed, and the radioactivity was measured in a well counter. After decay correction, results were expressed as percent of the injected dose of activity per gram of tissue (% ID/g). Other mice were anesthetized with 2% isoflurane and injected intravenously with 1 mCi [^18F]D-FAC. After 1 hr, mice were euthanized, embedded in 3% carboxymethyl cellulose (CMC, Sigma), and frozen in 100% ethanol with dry ice for 45 min. The 50 micron sections were cut using a whole body cryostat, (PMV, Stockholm, Sweden); samples were exposed overnight on BAS-TR2025 plates (Fujifilm Life Science, Stamford, Conn.). Imaging plates were read using a Fujibas-5000 phosphorimager (16 bit, 25 micron resolution; Fujifilm Life Science).
In this model, antigen-specific T cells primed by immunodominant epitopes encoded by viral gag and env genes rapidly expand in spleen and tumor draining lymph nodes (DLNs) and then traffic to the tumor lesion which is rejected over a period of 2-5 weeks^17,18. In fact, the kinetics of T cell responses against MoMSV-induced sarcomas have been studied extensively using conventional ex vivo approaches and our group has used PET reporter gene imaging to visualize tumor rejection in this model^17. To analyze whether the [^18F]D-FAC microPET/CT imaging can detect sites of localized immune activation, mice were scanned before and after the virus challenge.
To determine whether [^18F]D-FAC can provide unique information regarding localized immune activation via the afore-mentioned model, the mice imaged by [^18F]D-FAC were also scanned on consecutive days using [^18F]FDG and [^18F]FLT.

[8] = test system: L1210 wild type or 10K subcutaneous tumors; assay: PET of subcutaneous L1210 wild type and 10K tumors; type: in vivo, SCID mice
Protocol: To investigate whether [^18F]D-FAC PET can distinguish gemcitabine-sensitive cancer cells from the resistant cancer cells in vivo, mice were injected with L1210 wild type or 10K cells to establish subcutaneous tumors; mice were scanned with [^18F]FDG PET to confirm that implanted cells were viable and growing in vivo and [^18F]D-FAC PET scans were carried out to compare D-FAC accumulation in gemcitabine sensitive versus resistant cells. […] The mice were injected 4 days prior to imaging.
Mice were challenged with the MoMSV onco-retrovirus.

[9] = chromatography of plasma after intravenous injection of probe (deamination); type: in vivo, C57BL/6 mouse; details: plasma 10 and 45 minutes after intravenous injection
[10] = chromatography after incubation of probe with human plasma; details: 10 and 45 minutes incubation
Protocol: FIG. 19 presents chromatographs of [^18F]D-FAC (FIG. 19C) and [^18F]L-FAC (FIG. 19D) in plasma 10 minutes and 45 minutes after the probe was incubated with human plasma.

[11] = test system: pancreatic inflammatory lesions; assay: PET/CT scan of human with chronic pancreatitis; type: in vivo; details: person
From the text: FIG. 30 presents PET/CT scans of a human with chronic pancreatitis. The pancreas head 301 is visible.

[12] = C57/BL6, mouse, in vivo, iv, 60 min
[13] = spleen, 60 min after intravenous injection, 3 mice

With Cc1cn([C@H]2C[C@H](F)[C@@H](CO)O2)c(=O)[nH]c1=O [[^3H]FLT, 3′-fluoro-3′-deoxythymidine, reference compound] the “uptake compared between L1210 and L1210-10K cell lines” value ([1]; negative control) was “indistinguishable”.
In the case of Nc1nc(Cl)nc2c1ncn2[C@@H]1O[C@H](CO)[C@@H](O)[C@@H]1[18F] [[^18F]-CA, 2-chloro-9-(2′-deoxy-2′-[^18F]fluoro-β-D-arabinofuranosyl)adenine], the “dependence of retention and phosphorylation on dCK expression” value (“dependence” below) [1] is reported as “requires dCK expression”.
In the case of Nc1ccn(C2O[C@H](CO)[C@@H](O)[C@@H]2F)c(=O)n1 (stereo partly drawn) [[^3H]D-FAC, 1-(2′-deoxy-2′-fluoro-arabinofuranosyl) cytosine], the uptake [2] is reported as 34 fmols/1×10^5 cells, the “incorporation into DNA of proliferating T cells” value [3] is reported as “incorporated in the DNA” and the uptake ([1]; dCK^+ cells) is reported as 1288 fmols/1×10^5 cells. The “uptake in dCK^+ cells compared to cells lacking dCK activity” value ([1]; p<0.001) was 40 fold, the “uptake in cells overexpressing dCK and SLC29A1” value [4] was “increased uptake” and the phosphorylation [5] was 1.2 fmols. For the same compound, the phosphorylation ([6]; dCK^+ cells, 1 microgram protein/reaction) was 62 fmols and the “phosphorylation in dCK positive cells versus dCK deficient cells” value ([6]; p=0.028) was 52 fold.
With Nc1ccn([C@@H]2O[C@H](CO)[C@@H](O)C2(F)F)c(=O)n1 [dFdC, 2′,2′-difluorodeoxycytidine, reference compound] the “difference in probe retention by proliferating compared to naïve T cells” value ([3]; 1 hr incubation, 72 hrs after stimulation) was over 20 fold.
For Cc1cn([C@H]2C[C@H](F)[C@@H](CO)O2)c(=O)[nH]c1=O [[^18F]FLT, 3′-fluoro-3′-deoxythymidine], the “Spleen, % ID/g per organ normalized to % ID/g muscle” value (“Spleen, % ID/g per organ normalized” below) [12] was 1.02 +/− 0.21 % ID/g per organ normalized to % ID/g muscle, the “Thymus, % ID/g per organ normalized to % ID/g muscle” value [12] was 1.22 +/− 0.23 % ID/g per organ normalized to % ID/g muscle and the “accumulation in thymus and spleen” value [12] was “neither [^18F]FLT nor [^18F]D-FMAU showed detectable accumulation”. For the same compound, the “accumulation at sites of immune activation” value ([7]; day 14) was “no detectable”.
For “2-[^18F]fluoro-2-deoxy-D-glucose [[^18F]FDG, reference compound]”, the “retention in the brain and the myocardium” value (mouse, in vivo) was “substantially accumulates”, the “Spleen, % ID/g per organ normalized” value [13] was 1.69 +/− 0.16 % ID/g per organ normalized to % ID/g muscle and the “accumulation in tumor over background (contralateral muscle tissue)” value ([7]; tumor lesions) was 8.2±4.2 % ID/g tumor over background. The “accumulation in gemcitabine sensitive versus resistant cells” value ([8]; mouse, in vivo) was “equivalent”.
In the case of Cc1cn([C@@H]2O[C@H](CO)[C@@H](O)[C@@H]2F)c(=O)[nH]c1=O [[^18F]FMAU, 1-(2′-Deoxy-2′-fluoro-β-D-arabinofuranosyl)-5-methyluracil], the “accumulation in thymus and spleen” value (60 min after intravenous injection) is reported as “neither [^18F]FLT nor [^18F]D-FMAU showed detectable accumulation”, the “Spleen, % ID/g per organ normalized” value [13] is reported as 1.08 +/− 0.27 % ID/g per organ normalized to % ID/g muscle and the “Thymus, % ID/g per organ normalized to % ID/g muscle” value (thymus, 60 min after intravenous injection, 3 mice) is reported as 1.33 +/− 0.24 % ID/g per organ normalized to % ID/g muscle.
With Cc1cn([C@H]2O[C@@H](CO)[C@H](O)[C@H]2[18F])c(=O)nc1N [[^18F]L-FMAC] the “resistance to deamination in plasma after injection into mice” value [9] was “resistant to deamination” and the “dependence” value ([6]; L1210 WT and 10K lysates, 20 minutes incubation) was “requires dCK expression”.
In the case of Nc1ccn([C@H]2O[C@@H](CO)[C@H](O)[C@H]2[18F])c(=O)n1 [[^18F]L-FAC, 1-(2′-deoxy-2′-[^18F]fluoro-β-L-arabinofuranosyl)cytosine], the “biodistribution compared with [^18F]D-FAC” value (60 minutes after intravenous injection) is reported as “resembles that of [^18F]D-FAC”, the “retention/visualization in dCK deficient, gemcitabine resistant tumors” value ([8]; L1210-10K, 4 days after injection) is reported as “not visualization” and the “retention/visualization in dCK positive, gemcitabine sensitive tumors” value ([8]; L1210 WT, 4 days after injection) is reported as “allows visualization”. For the same compound, the “stability in human plasma” value [10] was “improved stability relative to [^18F]D-FAC”, the “resistance to deamination in plasma after injection into mice” value [9] was “more resistant to deamination than [^18F]D-FAC” and the “dependence” value [1] was “requires dCK expression”. For the same compound, the “accumulation in pancreatic inflammatory lesions” value [11] was “clear accumulation”.

Reference: patent publication US8101740B2, “Positron emission tomography probes for imaging immune activation and selected cancers” (The Regents of the University of California, priority 2007, dated 2012)
